Results taken from patent publication US10435399B2, “HDAC6 inhibitory heterocyclic compound” (TAKEDA PHARMACEUTICAL COMPANY LIMITED, priority 2017, dated 2019).

Each compound was assayed against T1, HDAC6 enzyme (Homo sapiens, UniProt Q9UBN7) (assay: HDAC6 enzyme inhibitory activity (HDAC-Glo I/II Assay kit)). Settings: 10 μM; wells without enzyme = 100% inhibition; read-out: HDAC6 inhibitory rate (%) (10 μM).
T1 construct: transducing full length HDAC6 gene into Sf-9 insect cells; GST; purchased SignalChem; host or cells: Sf-9 insect cells
T1 sequence (Q9UBN7 1-1215): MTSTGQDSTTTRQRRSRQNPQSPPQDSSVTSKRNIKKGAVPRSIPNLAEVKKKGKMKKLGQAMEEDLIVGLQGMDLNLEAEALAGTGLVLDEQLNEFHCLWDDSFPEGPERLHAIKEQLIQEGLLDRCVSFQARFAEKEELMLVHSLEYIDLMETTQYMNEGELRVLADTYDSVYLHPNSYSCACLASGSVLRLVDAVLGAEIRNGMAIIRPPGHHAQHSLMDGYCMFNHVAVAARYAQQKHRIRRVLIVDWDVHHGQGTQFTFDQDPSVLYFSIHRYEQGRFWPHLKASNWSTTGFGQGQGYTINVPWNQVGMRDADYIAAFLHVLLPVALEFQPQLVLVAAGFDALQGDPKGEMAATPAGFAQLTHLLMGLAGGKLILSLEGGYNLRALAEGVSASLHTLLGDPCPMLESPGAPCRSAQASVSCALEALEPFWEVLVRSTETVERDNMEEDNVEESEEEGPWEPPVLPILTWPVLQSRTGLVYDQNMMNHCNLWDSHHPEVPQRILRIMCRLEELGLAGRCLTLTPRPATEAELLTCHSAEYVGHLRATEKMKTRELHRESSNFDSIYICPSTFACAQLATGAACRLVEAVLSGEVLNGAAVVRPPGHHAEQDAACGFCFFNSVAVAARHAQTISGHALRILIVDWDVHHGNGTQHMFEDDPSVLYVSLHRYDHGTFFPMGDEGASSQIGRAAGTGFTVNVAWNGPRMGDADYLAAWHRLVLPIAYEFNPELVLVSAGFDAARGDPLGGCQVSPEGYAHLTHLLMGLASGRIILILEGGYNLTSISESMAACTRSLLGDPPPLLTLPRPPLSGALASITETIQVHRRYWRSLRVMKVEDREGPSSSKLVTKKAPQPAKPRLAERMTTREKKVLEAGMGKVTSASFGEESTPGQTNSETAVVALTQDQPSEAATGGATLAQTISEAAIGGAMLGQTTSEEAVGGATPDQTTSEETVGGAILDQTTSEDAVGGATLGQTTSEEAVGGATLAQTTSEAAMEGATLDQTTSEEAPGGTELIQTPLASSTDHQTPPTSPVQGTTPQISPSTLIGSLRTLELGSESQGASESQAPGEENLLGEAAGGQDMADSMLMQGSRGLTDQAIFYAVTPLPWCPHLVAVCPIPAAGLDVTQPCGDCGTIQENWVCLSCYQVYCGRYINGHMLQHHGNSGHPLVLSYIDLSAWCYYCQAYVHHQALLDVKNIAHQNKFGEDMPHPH
Type: biochemical
Summary of the method: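 Sf-9-derived GST-purified full-length HDAC6 + cpd, 60 min RT, 24 mM Tris pH 7.5/0.6 mM glutathione/0.01% Tween-20; add HDAC-Glo substrate-developer, 20 min RT; luminescence. No-enzyme = 100% inhibition.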

SMILES	inhibition at 10 µM
N#Cc1cccc(-c2c(F)cccc2N2Cc3ccc(-c4nnc(C(F)F)o4)cc3C2=O)c1 [Example 377, 2′-(6-(5-(difluoro-methyl)-1,3,4-oxadiazol-2-yl)-1-oxo-1,3-dihydro-2H-isoindol-2-yl)-6′-fluorobiphenyl-3-carbonitrile]	101%
N#Cc1cccc(-c2cc(F)ccc2N2Cc3c(F)cc(-c4nnc(C(F)F)o4)cc3C2=O)c1 [Example 378, 2′-(6-(5-(difluoro-methyl)-1,3,4-oxadiazol-2-yl)-4-fluoro-1-oxo-1,3-dihydro-2H-isoindol-2-yl)-5′-fluorobiphenyl-3-carbonitrile]	99%
O=C1c2cc(-c3nnc(C(F)F)o3)cc(F)c2CN1C[C@@H]1CCCN1C(=O)C1CC1 [Example 379, 2-(((2S)-1-(cyclopropyl-carbonyl)pyrrolidin-2-yl)methyl)-6-(5-(difluoromethyl)-1,3,4-oxadiazol-2-yl)-4-fluoro-isoindolin-1-one]	97%
O=C1c2cc(-c3nnc(C(F)F)o3)cc(F)c2CN1C[C@@H]1CCCN1S(=O)(=O)CC(F)(F)F [Example 380, 6-(5-(difluoro-methyl)-1,3,4-oxadiazol-2-yl)-4-fluoro-2-(((2S)-1-((2,2,2-trifluoroethyl)sulfonyl)pyrrolidin-2-yl)methyl) isoindolin-1-one]	99%
Cn1cc(-c2cc(F)ccc2N2Cc3c(F)cc(-c4nnc(C(F)F)o4)cc3C2=O)cn1 [Example 382, 6-(5-(difluoro-methyl)-1,3,4-oxadiazol-2-yl)-4-fluoro-2-(4-fluoro-2-(1-methyl-1H-pyrazol-4-yl)phenyl) isoindolin-1-one]	98%
O=C1c2cc(-c3nnc(C(F)F)o3)cc(F)c2CN1c1ccc(F)cc1-c1cccc(F)c1 [Example 383, 2-(3′,5-difluoro-biphenyl-2-yl)-6-(5-(difluoro-methyl)-1,3,4-oxadiazol-2-yl)-4-fluoroiso-indolin-1-one]	95%
O=C1c2cc(-c3nnc(C(F)F)o3)ccc2CN1c1ccc(F)cc1-c1cccc(F)c1 [Example 386, 2-(3′,5-difluoro-biphenyl-2-yl)-6-(5-(difluoro-methyl)-1,3,4-oxadiazol-2-yl) isoindolin-1-one]	101%
Cn1nc(C(F)(F)F)cc1-c1cc(F)ccc1N1Cc2c(F)cc(-c3nnc(C(F)F)o3)cc2C1=O [Example 388, 6-(5-(difluoro-methyl)-1,3,4-oxadiazol-2-yl)-4-fluoro-2-(4-fluoro-2-(1-methyl-3-(trifluoro-methyl)-1H-pyrazol-5-yl)phenyl) isoindolin-1-one]	101%
Cn1nc(C(F)(F)F)cc1-c1cc(F)ccc1N1Cc2ccc(-c3nnc(C(F)F)o3)cc2C1=O [Example 389, 6-(5-(difluoro-methyl)-1,3,4-oxadiazol-2-yl)-2-(4-fluoro-2-(1-methyl-3-(trifluoro-methyl)-1H-pyrazol-5-yl)phenyl) isoindolin-1-one]	101%
Cn1cc(-c2ccccc2N2Cc3c(F)cc(-c4nnc(C(F)F)o4)cc3C2=O)cn1 [Example 392, 6-(5-(difluoro-methyl)-1,3,4-oxadiazol-2-yl)-4-fluoro-2-(2-(1-methyl-1H-pyrazol-4-yl)phenyl) isoindolin-1-one]	99%
O=C1c2cc(-c3nnc(C(F)F)o3)cc(F)c2CN1c1ccccc1-c1cccc(F)c1 [Example 393, 6-(5-(difluoro-methyl)-1,3,4-oxadiazol-2-yl)-4-fluoro-2-(3′-fluorobiphenyl-2-yl)isoindolin-1-one]	99%
Cn1nc(C(F)(F)F)cc1-c1ccccc1N1Cc2c(F)cc(-c3nnc(C(F)F)o3)cc2C1=O [Example 394, 6-(5-(difluoro-methyl)-1,3,4-oxadiazol-2-yl)-4-fluoro-2-(2-(1-methyl-3-(trifluoro-methyl)-1H-pyrazol-5-yl)phenyl) isoindolin-1-one]	99%
O=C1c2cc(-c3nnc(C(F)F)o3)cnc2CN1Cc1cccc(OC(F)F)c1 [Example 395, 6-(3-(difluoro-methoxy)benzyl)-3-(5-(difluoro-methyl)-1,3,4-oxadiazol-2-yl)-6,7-dihydro-5H-pyrrolo [3,4-b]pyridin-5-one]	99%
O=C1c2cc(-c3nnc(C(F)F)o3)ccc2CN1c1cccc(F)c1-c1cccc(Cl)c1 [Example 397, 2-(3′-chloro-6-fluorobiphenyl-2-yl)-6-(5-(difluoro-methyl)-1,3,4-oxadiazol-2-yl) isoindolin-1-one]	100%
O=C1c2cc(-c3nnc(C(F)F)o3)ccc2CN1[C@@H]1CCOC[C@H]1NCC(F)(F)F [Example 399, 6-(5-(difluoromethyl)-1,3,4-oxadiazol-2-yl)-2-((3S,4R)-3-((2,2,2-trifluoroethyl)amino)tetrahydro-2H-pyran-4-yl)isoindolin-1-one]	101%
O=C1c2cc(-c3nnc(C(F)F)o3)cnc2CN1[C@@H]1CCOC[C@H]1NCC(F)(F)F [Example 400, 3-(5-(difluoro-methyl)-1,3,4-oxadiazol-2-yl)-6-((3S,4R)-3-((2,2,2-trifluoro-ethyl)amino)tetrahydro-2H-pyran-4-yl)-6,7-dihydro-5H-pyrrolo[3,4-b] pyridin-5-one]	99%
N#Cc1cccc(-c2c(Cl)cccc2N2Cc3ccc(-c4nnc(C(F)F)o4)cc3C2=O)c1 [Example 401, 2′-chloro-6′-(6-(5-(difluoro-methyl)-1,3,4-oxadiazol-2-yl)-1-oxo-1,3-dihydro-2H-isoindol-2-yl) biphenyl-3-carbonitrile]	99%

Results, then the compound that gave them:

inhibition at 10 µM	SMILES
100%	O=C1c2cc(-c3nnc(C(F)F)o3)cc(F)c2CN1c1ccc(F)cc1-c1cnn(C(F)F)c1 [Example 381, 6-(5-(difluoro-methyl)-1,3,4-oxadiazol-2-yl)-2-(2-(1-(difluoro-methyl)-1H-pyrazol-4-yl)-4-fluorophenyl)-4-fluoroisoindolin-1-one]
99%	Cn1cc(-c2cccc(F)c2)c(N2Cc3ccc(-c4nnc(C(F)F)o4)cc3C2=O)n1 [Example 384, 6-(5-(difluoro-methyl)-1,3,4-oxadiazol-2-yl)-2-(4-(3-fluoro-phenyl)-1-methyl-1H-pyrazol-3-yl) isoindolin-1-one]
101%	O=C1c2cc(-c3nnc(C(F)F)o3)ccc2CN1c1ccc(F)cc1-c1cnn(C(F)F)c1 [Example 385, 6-(5-(difluoro-methyl)-1,3,4-oxadiazol-2-yl)-2-(2-(1-(difluoro-methyl)-1H-pyrazol-4-yl)-4-fluorophenyl) isoindolin-1-one]
101%	O=C1c2cc(-c3nnc(C(F)F)o3)ccc2CN1c1cccnc1-c1cnn(C(F)F)c1 [Example 387, 6-(5-(difluoro-methyl)-1,3,4-oxadiazol-2-yl)-2-(2-(1-(difluoro-methyl)-1H-pyrazol-4-yl)pyridin-3-yl) isoindolin-1-one]
100%	O=C1c2cc(-c3nnc(C(F)F)o3)cc(F)c2CN1c1ccccc1-c1cnn(C(F)F)c1 [Example 390, 6-(5-(difluoro-methyl)-1,3,4-oxadiazol-2-yl)-2-(2-(1-(difluoro-methyl)-1H-pyrazol-4-yl)phenyl)-4-fluoroisoindolin-1-one]
100%	N#Cc1cccc(-c2ncccc2N2Cc3ccc(-c4nnc(C(F)F)o4)cc3C2=O)c1 [Example 391, 3-(3-(6-(5-(difluoromethyl)-1,3,4-oxadiazol-2-yl)-1-oxo-1,3-dihydro-2H-isoindol-2-yl)pyridin-2-yl) benzonitrile]
101%	O=C1c2cc(-c3nnc(C(F)F)o3)ccc2CN1c1cccc(F)c1-c1cnn(C(F)F)c1 [Example 396, 6-(5-(difluoro-methyl)-1,3,4-oxadiazol-2-yl)-2-(2-(1-(difluoromethyl)-1H-pyrazol-4-yl)-3-fluorophenyl) isoindolin-1-one]
102%	O=C1c2cc(-c3nnc(C(F)F)o3)ccc2CN1c1cccc(F)c1-c1cccc(F)c1 [Example 398, 2-(3′,6-difluoro-biphenyl-2-yl)-6-(5-(difluoro-methyl)-1,3,4-oxadiazol-2-yl) isoindolin-1-one]
